Experimental data published in patent US8278455B2, “5- or 6-substituted benzimidazole derivatives as inhibitors of respiratory syncytial virus replication” (Janssen Pharmaceutica N.V., priority 2003, dated 2012).

Assays:
[1] = tested on: Respiratory Syncytial Virus; assay: In vitro screening for activity against Respiratory Syncytial Virus (MTT tetrazolium colorimetric assay, HeLa cells); assay type: cell-based; conditions: human respiratory syncytial virus, 168 h; protection against RSV cytopathology in HeLa cells, 7 days after infection; pEC50 = −log of EC50 in molar units
Summary of the method: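 HeLa cells (4×10^5 cells/ml) added 2 h after ~100 TCID50 RSV to wells holding five-fold compound dilutions, in Eagle's medium with 5% FCS and 20 mM Hepes; mock-infected rows gave cytotoxicity. After 7 days at 37 °C, MTT read at 540 minus 690 nm; EC50/CC50 from dose-response, reported as pEC50 categories.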

melting point [°C] | EC50 [1] [nM] | Structure (SMILES)
260 | 1.26 | Cc1ccc(O)c(Cn2c(NC3CCN(CCN)CC3)nc3ccc(C=Cc4ccccc4)cc32)n1.Cl [Compound 146, 2-{2-[1-(2-Amino-ethyl)-piperidin-4-ylamino]-6-styryl-benzoimidazol-1-ylmethyl}-6-methyl-pyridin-3-ol hydrochloride salt]
185 | 12.6 | Cc1ccc(O)c(Cn2c(NC3CCN(CCO)CC3)nc3ccc(CCCN)cc32)n1.Cl [Compound 160, 2-{6-(3-Amino-propyl)-2-[1-(2-hydroxy-ethyl)-piperidin-4-ylamino]-benzoimidazol-1-ylmethyl}-6-methyl-pyridin-3-ol hydrochloride salt]
123 | 3.16 | Cc1cccc(NCc2cc(C)c3nc(NC4CCN(CCO)CC4)n(Cc4nc(C)ccc4O)c3c2)c1 [Compound 171, 2-[2-[1-(2-Hydroxy-ethyl)-piperidin-4-ylamino]-4-methyl-6-(m-tolylamino-methyl)-benzoimidazol-1-ylmethyl]-6-methyl-pyridin-3-ol]
161 | 1.58 | Cc1cc(C)cc(NCc2ccc3nc(NCCCN4CCCCC4)n(Cc4nc(C)ccc4O)c3c2)c1 [Compound 173, 2-[6-[(3,5-dimethyl-phenylamino)-methyl]-2-(3-piperidin-1-yl-propylamino)-benzoimidazol-1-ylmethyl]-6-methyl-pyridin-3-ol]
150 | 3.98 | Cc1cc(C)cc(NCc2ccc3nc(NCCCN4CCN(C)CC4)n(Cc4nc(C)ccc4O)c3c2)c1 [Compound 174, 2-{6-[(3,5-Dimethyl-phenylamino)-methyl]-2-[3-(4-methyl-piperazin-1-yl)-propylamino]-benzoimidazol-1-ylmethyl}-6-methyl-pyridin-3-ol]
128 | 31.6 | Cc1cc(C)cc(NCc2ccc3nc(NCC(O)CO)n(Cc4nc(C)ccc4O)c3c2)c1 (centres unmarked) [Compound 175, 3-[6-[(3,5-dimethyl-phenylamino)methyl]-1-(3-hydroxy-6-methyl-pyridin-2-ylmethyl)-1H-benzoimidazol-2-ylamino]-propane-1,2-diol]
178 | > 100000 | COc1ccc(CCNc2nc3ccc(CNc4cc(C)cc(C)c4)cc3n2Cc2nc(C)ccc2O)cc1 [Compound 190, 2-{6-[(3,5-Dimethyl-phenylamino)-methyl]-2-[2-(4-methoxy-phenyl)-ethylamino]-benzoimidazol-1-ylmethyl}-6-methyl-pyridin-3-ol]
